Measurements from patent publication US20150010928A1, “MEANS AND METHODS FOR ASSESSING AN ENDOCRINE DISEASE OR DISORDER” (priority 2012, published 2015).
Marks after values point to notes of the source that are not given here.

System: male rats
Assay: Plasma metabolite profiling (GC-MS, LC-MS, SPE-LC-MS) in male rats dosed once daily over 28 days (OECD 407)
Type: in vivo, rat
Settings: high dose; for Mannose: Table 15c
Procedure, shortened: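 Metabolites were measured by GC-MS (derivatised) and reversed-phase LC-MS, with steroids by online SPE-LC-MS, in plasma drawn from fasted rats on days 7, 14 and 28 of once-daily dosing (5/sex/group). Values are ratios versus sex-matched untreated controls, normalized to pool samples, with Welch-test p-values.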

C[C@]12CCC(=O)C=C1CC[C@@H]1[C@@H]2CC[C@@]2(C)[C@H]1CC[C@]2(C)O [17-alpha-Methyltestosterone]
Mannose (m7, male rats): 1.14 * | 3,4-Dihydroxyphenylacetic acid (DOPAC) (m7, male rats, Table 15d): 0.6 * | 18-Hydroxy-11-deoxycorticosterone (m7, male rats, Table 15d): 0.35 * | Glycerol phosphate, lipid fraction (m7, male rats, Table 15d): 0.28 * | Homovanillic acid (HVA) (m7, male rats, Table 15d): 0.74 * | Lysophosphatidylcholine (C18:1) (m7, male rats, Table 15d): 0.66 * | Lysophosphatidylethanolamine (C22:5) (m7, male rats, Table 15d): 0.77 * | Phosphate, lipid fraction (m7, male rats, Table 15d): 0.51 * | Phosphatidylcholine (C18:0,C18:1) (m7, male rats, Table 15d): 0.78 | Sphingomyelin (d18:1, C16:0) (m7, male rats, Table 15d): 0.34 * | Sphingomyelin (d18:1,C23:0) (m7, male rats, Table 15d): 0.49 * | Sphingomyelin (d18:1,C24:0) (m7, male rats, Table 15d): 0.46 * | Sphingomyelin (d18:2,C18:0) (m7, male rats, Table 15d): 0.4 | TAG No 02 (m7, male rats, Table 15d): 0.41 * | myo-Inositol, lipid fraction (m7, male rats, Table 15d): 0.4 * | Cholesterol (m7, Table 14b): 0.29 | Choline plasmalogen No 02 (m7, Table 14b): 0.55 | Lignoceric acid (C24:0) (m7, Table 14b): 0.28 | Sphingomyelin (d18:1, C16:0) (m7, Table 14b): 0.34 | Sphingomyelin (d18:2, C16:0) (m7, Table 14b): 0.39 | erythro-Sphingosine (d18:1) (m7, Table 14b): 0.17 | Mannose (m14, male rats): 1.03 | 3,4-Dihydroxyphenylacetic acid (DOPAC) (m14, male rats, Table 15d): 0.69 * | 18-Hydroxy-11-deoxycorticosterone (m14, male rats, Table 15d): 0.94 | Glycerol phosphate, lipid fraction (m14, male rats, Table 15d): 0.63 * | Homovanillic acid (HVA) (m14, male rats, Table 15d): 0.68 * | Lysophosphatidylcholine (C18:1) (m14, male rats, Table 15d): 0.78 * | Lysophosphatidylethanolamine (C22:5) (m14, male rats, Table 15d): 0.88 * | Phosphate, lipid fraction (m14, male rats, Table 15d): 0.64 * | Phosphatidylcholine (C18:0,C18:1) (m14, male rats, Table 15d): 0.69 * | Sphingomyelin (d18:1, C16:0) (m14, male rats, Table 15d): 0.28 * | Sphingomyelin (d18:1,C23:0) (m14, male rats, Table 15d): 0.76 | Sphingomyelin (d18:1,C24:0) (m14, male rats, Table 15d): 0.47 * | Sphingomyelin (d18:2,C18:0) (m14, male rats, Table 15d): 0.31 * | TAG No 02 (m14, male rats, Table 15d): 0.3 * | myo-Inositol, lipid fraction (m14, male rats, Table 15d): 0.49 * | Cholesterol (m14, Table 14b): 0.41 | Choline plasmalogen No 02 (m14, Table 14b): 0.64 | Lignoceric acid (C24:0) (m14, Table 14b): 0.39 | Sphingomyelin (d18:1, C16:0) (m14, Table 14b): 0.28 | Sphingomyelin (d18:2, C16:0) (m14, Table 14b): 0.38 | erythro-Sphingosine (d18:1) (m14, Table 14b): 0.21 | Mannose (m28, male rats): 1.2 * | 3,4-Dihydroxyphenylacetic acid (DOPAC) (m28, male rats, Table 15d): 0.74 | 18-Hydroxy-11-deoxycorticosterone (m28, male rats, Table 15d): 0.55 * | Glycerol phosphate, lipid fraction (m28, male rats, Table 15d): 0.47 * | Homovanillic acid (HVA) (m28, male rats, Table 15d): 0.92 | Lysophosphatidylcholine (C18:1) (m28, male rats, Table 15d): 0.73 * | Lysophosphatidylethanolamine (C22:5) (m28, male rats, Table 15d): 0.77 * | Phosphate, lipid fraction (m28, male rats, Table 15d): 0.6 * | Phosphatidylcholine (C18:0,C18:1) (m28, male rats, Table 15d): 0.7 * | Sphingomyelin (d18:1, C16:0) (m28, male rats, Table 15d): 0.27 * | Sphingomyelin (d18:1,C23:0) (m28, male rats, Table 15d): 0.48 * | Sphingomyelin (d18:1,C24:0) (m28, male rats, Table 15d): 0.44 * | Sphingomyelin (d18:2,C18:0) (m28, male rats, Table 15d): 0.36 * | TAG No 02 (m28, male rats, Table 15d): 0.34 * | myo-Inositol, lipid fraction (m28, male rats, Table 15d): 0.51 * | Cholesterol (m28, Table 14b): 0.39 | Choline plasmalogen No 02 (m28, Table 14b): 0.49 | Lignoceric acid (C24:0) (m28, Table 14b): 0.19 | Sphingomyelin (d18:1, C16:0) (m28, Table 14b): 0.27 | Sphingomyelin (d18:2, C16:0) (m28, Table 14b): 0.37 | erythro-Sphingosine (d18:1) (m28, Table 14b): 0.19
